# Where two headings read alike, the source gives them in different places.
# Target: T1, full length AKT E17K (Homo sapiens, UniProt P31749, E17K)
# T1 construct: host or cells: HEK-293 (ATCC CRL-1573)
# Assay: NanoBRET Target Engagement (TE) Intracellular Kinase Assay
# Type: cell-based
# Source text: The NanoBRET™ Target Engagement (TE) Intracellular Kinase Assays are based on the NanoBRET™ System (Promega Corporation), an energy transfer technique designed to measure molecular proximity in living cells. The NanoBRET™ TE Assays measure the apparent affinity of test compounds by competitive displacement of the NanoBRET™ tracer compound, which is a cell permeable molecule engineered to be reversibly bound to a NanoLuc® luciferase-kinase fusion expressed in cells. For compound screening, when a test compound binds to the selected kinase, the BRET signal is attenuated. […] All cells were evaluated for viability prior to transfection and optimization of the transfection was done prior to experimentation. […] Following transfection, cells were washed and resuspended in Opti-MEM. NanoBRET assays were performed in white, 384-well plates (Corning) at a density of 2×10^5 cells/well. All example compounds were prepared as concentrated stock solutions in DMSO (Sigma-Aldrich). Compounds are dissolved in DMSO to make 10 mM stock solution. […] A Labcyte ECHO 550 compound dispenser was used to facilitate compound transfer directly to cells. Cells were equilibrated for 2 hr with energy transfer probes and example compound prior to BRET measurements. […] For target engagement analysis, the energy transfer probes were added to the cells at concentrations optimized for the target in question (AKT E17K). Following compound incubation, NanoBRET NanoGlo Substrate (Promega Cat #Ni57D) and Extracellular Nanoluc Inhibitor (Promega Cat #N235C) was added according to the manufacturer's recommended protocol, and luminescence was measured on Envision Reader (Perkin Elmer) Multimode Luminometer equipped with 450 nm BPfilter (donor) and 600 nm LPfilter (acceptor), using 0.5 s integration time. Milli-BRET units (mBU) are calculated by multiplying the raw BRET values by 1000. Apparent tracer affinity values (EC50) were determined using the sigmoidal dose-response (variable slope). Competitive displacement data were then plotted and data were fit to determine the EC50 value for each example compound.
# [1] = read-out: NanoBRET AKT1E17K EC50, HEK-293 cells transfected with NanoLuc-AKT E17K, competitive displacement of NanoBRET tracer, 2 hr equilibration, 10-point 3-fold dilution
# T1 sequence (P31749 whole entry E17K): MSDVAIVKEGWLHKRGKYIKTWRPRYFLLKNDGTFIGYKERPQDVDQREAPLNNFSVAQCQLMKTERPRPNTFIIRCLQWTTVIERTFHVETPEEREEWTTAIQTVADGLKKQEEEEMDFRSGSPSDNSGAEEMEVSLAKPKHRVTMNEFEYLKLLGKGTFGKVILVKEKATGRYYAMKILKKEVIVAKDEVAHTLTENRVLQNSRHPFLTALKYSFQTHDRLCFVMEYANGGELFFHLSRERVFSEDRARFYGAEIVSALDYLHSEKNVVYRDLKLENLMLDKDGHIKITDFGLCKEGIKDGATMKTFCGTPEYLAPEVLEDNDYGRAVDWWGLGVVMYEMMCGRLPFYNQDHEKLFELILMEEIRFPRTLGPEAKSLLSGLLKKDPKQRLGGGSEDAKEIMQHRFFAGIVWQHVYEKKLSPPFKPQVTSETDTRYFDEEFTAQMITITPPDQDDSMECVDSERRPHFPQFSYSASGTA
EC50 [1],EC50,SMILES
< 15 nM,–,"COc1c(N2CCC3(CCN(Cc4ccc(-n5c(-c6cccnc6N)nc6ccc(-c7ccccc7)nc65)cc4)C3)C2)c(=O)c1=O (stereo not shown) [Example 56, 3-(7-(4-(2-(2-Aminopyridin-3-yl)-5-phenyl-3H-imidazo[4,5-b]pyridin-3-yl)benzyl)-2,7-diazaspiro[4.4]nonan-2-yl)-4-methoxycyclobut-3-ene-1,2-dione]"
–,60 to 600 nM,"COc1c(N2CCN(Cc3ccc(-n4c(-c5cccnc5N)nc5ccc(-c6ccccc6)nc54)cc3)C[C@H]2C)c(=O)c1=O [Example 67, (R)-3-(4-(4-(2-(2-aminopyridin-3-yl)-5-phenyl-3H-imidazo[4,5-b]pyridin-3-yl)benzyl)-2-methylpiperazin-1-yl)-4-methoxycyclobut-3-ene-1,2-dione]"
–,> 600 nM,"Nc1ncccc1-c1nc2ccc(-c3ccccc3)nc2n1-c1ccc(CN2CCN3c4c(c(=O)c4=O)OCC[C@H]3C2)cc1 [Example 89, (S)-7-(4-(2-(2-aminopyridin-3-yl)-5-phenyl-3H-imidazo[4,5-b]pyridin-3-yl)benzyl)-5,5a,6,7,8,9-hexahydro-4H-cyclobuta[b]pyrazino[1,2-d][1,4]oxazepine-1,2-dione]"
< 15 nM,–,"[2H]C([2H])([2H])N(c1c(OC)c(=O)c1=O)C1CCN(Cc2ccc(-n3c(-c4cccnc4N)nc4ccc(-c5ccccc5)nc43)cc2)CC1 [Example 100, 3-((1-(4-(2-(2-aminopyridin-3-yl)-5-phenyl-3H-imidazo[4,5-b]pyridin-3-yl)benzyl)piperidin-4-yl)(methyl-d3)amino)-4-methoxycyclobut-3-ene-1,2-dione]"
< 15 nM,–,"COc1c(N2C[C@H]3C[C@@H]2CN3Cc2ccc(-n3c(-c4cccnc4N)nc4ccc(-c5ccccc5)nc43)cc2)c(=O)c1=O [Example 76, 3-((1R,4R)-5-(4-(2-(2-aminopyridin-3-yl)-5-phenyl-3H-imidazo[4,5-b]pyridin-3-yl)benzyl)-2,5-diazabicyclo[2.2.1]heptan-2-yl)-4-methoxycyclobut-3-ene-1,2-dione]"
< 15 nM,–,"COc1c(NC2CCN(Cc3ccc(-n4c(-c5cccnc5N)nc5cc(-c6ccccc6)cnc54)cc3)CC2)c(=O)c1=O [Example 10, 3-((1-(4-(2-(2-Aminopyridin-3-yl)-6-phenyl-3H-imidazo[4,5-b]pyridin-3-yl)benzyl)piperidin-4-yl)amino)-4-methoxycyclobut-3-ene-1,2-dione]"
–,15 to 60 nM,"CCSc1c(N(CC)C2CCN(Cc3ccc(-n4c(-c5cccnc5N)nc5ccc(-c6ccccc6)nc54)cc3)CC2)c(=O)c1=O [Example 93, 3-((1-(4-(2-(2-aminopyridin-3-yl)-5-phenyl-3H-imidazo[4,5-b]pyridin-3-yl)benzyl)piperidin-4-yl)(ethyl)amino)-4-(ethylthio)cyclobut-3-ene-1,2-dione]"
< 15 nM,–,"COc1c(N2CC[C@@]3(CCN(Cc4ccc(-n5c(-c6cccnc6N)nc6ccc(-c7ccccc7)nc65)cc4)C3)C2)c(=O)c1=O [Example 62, (R)-3-(7-(4-(2-(2-Aminopyridin-3-yl)-5-phenyl-3H-imidazo[4,5-b]pyridin-3-yl)benzyl)-2,7-diazaspiro[4.4]nonan-2-yl)-4-methoxycyclobut-3-ene-1,2-dione]"
< 15 nM,–,"COc1c(N2CCCN(Cc3ccc(-n4c(-c5cccnc5N)nc5ccc(-c6ccccc6)nc54)cc3)CC2)c(=O)c1=O [Example 38, 3-(4-(4-(2-(2-Aminopyridin-3-yl)-5-phenyl-3H-imidazo[4,5-b]pyridin-3-yl)benzyl)-1,4-diazepan-1-yl)-4-methoxycyclobut-3-ene-1,2-dione]"
–,> 600 nM,"CC(C)Oc1c(N2CCN(Cc3ccc(-n4c(-c5cccnc5N)nc5ccc(-c6ccccc6)nc54)cc3)CC2)c(=O)c1=O [Example 25, 3-(4-(4-(2-(2-Aminopyridin-3-yl)-5-phenyl-3H-imidazo[4,5-b]pyridin-3-yl)benzyl)piperazin-1-yl)-4-isopropoxycyclobut-3-ene-1,2-dione]"
–,60 to 600 nM,"COc1c(N2C3CCC2CN(Cc2ccc(-n4c(-c5cccnc5N)nc5ccc(-c6ccccc6)nc54)cc2)C3)c(=O)c1=O [Example 72, 3-(3-(4-(2-(2-aminopyridin-3-yl)-5-phenyl-3H-imidazo[4,5-b]pyridin-3-yl)benzyl)-3,8-diazabicyclo[3.2.1]octan-8-yl)-4-methoxycyclobut-3-ene-1,2-dione]"
< 15 nM,–,"COc1c(N(CCO)C2CCN(Cc3ccc(-n4c(-c5cccnc5N)nc5ccc(-c6ccccc6)nc54)cc3)CC2)c(=O)c1=O [Example 48, 3-((1-(4-(2-(2-Aminopyridin-3-yl)-5-phenyl-3H-imidazo[4,5-b]pyridin-3-yl)benzyl)piperidin-4-yl)(2-hydroxyethyl)amino)-4-methoxycyclobut-3-ene-1,2-dione]"
–,15 to 60 nM,"COc1c(N2C[C@H]3CN(Cc4ccc(-n5c(-c6cccnc6N)nc6ccc(-c7ccccc7)nc65)cc4)C[C@H]3C2)c(=O)c1=O [Example 86, 3-((3aR,6aS)-5-(4-(2-(2-aminopyridin-3-yl)-5-phenyl-3H-imidazo[4,5-b]pyridin-3-yl)benzyl)hexahydropyrrolo[3,4-c]pyrrol-2(1H)-yl)-4-methoxycyclobut-3-ene-1,2-dione]"
–,15 to 60 nM,"COc1c(N2CCN(Cc3ccc(-n4c(-c5cccnc5N)nc5ccc(-c6ccccc6)nc54)cc3)C[C@@H]2C)c(=O)c1=O [Example 36, (S)-3-(4-(4-(2-(2-Aminopyridin-3-yl)-5-phenyl-3H-imidazo[4,5-b]pyridin-3-yl)benzyl)-2-methylpiperazin-1-yl)-4-methoxycyclobut-3-ene-1,2-dione]"
–,> 600 nM,"Nc1ncccc1-c1nc2ccc(-c3ccccc3)nc2n1-c1ccc(CN2CCC(Nc3c(O)c(=O)c3=O)CC2)cc1 [Example 18, 3-((1-(4-(2-(2-Aminopyridin-3-yl)-5-phenyl-3H-imidazo[4,5-b]pyridin-3-yl)benzyl)piperidin-4-yl)amino)-4-hydroxycyclobut-3-ene-1,2-dione]"
–,60 to 600 nM,"CCOc1c(N2CCN(Cc3ccc(-n4c(-c5cccnc5N)nc5ccc(-c6ccccc6)nc54)cc3)CC2)c(=O)c1=O [Example 24, 3-(4-(4-(2-(2-Aminopyridin-3-yl)-5-phenyl-3H-imidazo[4,5-b]pyridin-3-yl)benzyl)piperazin-1-yl)-4-ethoxycyclobut-3-ene-1,2-dione]"
< 15 nM,–,"COc1c(N2CC[C@]3(CCN(Cc4ccc(-n5c(-c6cccnc6N)nc6ccc(-c7ccccc7)nc65)cc4)C3)C2)c(=O)c1=O [Example 66, (S)-3-(7-(4-(2-(2-aminopyridin-3-yl)-5-phenyl-3H-imidazo[4,5-b]pyridin-3-yl)benzyl)-2,7-diazaspiro[4.4]nonan-2-yl)-4-methoxycyclobut-3-ene-1,2-dione]"
< 15 nM,–,"CSc1c(NC2CCN(Cc3ccc(-n4c(-c5cccnc5N)nc5ccc(-c6ccccc6)nc54)cc3)CC2)c(=O)c1=O [Example 45, 3-((1-(4-(2-(2-aminopyridin-3-yl)-5-phenyl-3H-imidazo[4,5-b]pyridin-3-yl)benzyl)piperidin-4-yl)amino)-4-(methylthio)cyclobut-3-ene-1,2-dione]"
–,> 600 nM,"CN(c1c(S)c(=O)c1=O)C1CCN(Cc2ccc(-n3c(-c4cccnc4N)nc4ccc(-c5ccccc5)nc43)cc2)CC1 [Example 46, 3-((1-(4-(2-(2-aminopyridin-3-yl)-5-phenyl-3H-imidazo[4,5-b]pyridin-3-yl)benzyl)piperidin-4-yl)(methyl)amino)-4-mercaptocyclobut-3-ene-1,2-dione]"
–,60 to 600 nM,"Nc1ncccc1-c1nc2ccc(-c3ccccc3)nc2n1-c1ccc(CN2CCC(Nc3c(OC4CCCC4)c(=O)c3=O)CC2)cc1 [Example 14, 3-((1-(4-(2-(2-Aminopyridin-3-yl)-5-phenyl-3H-imidazo[4,5-b]pyridin-3-yl)benzyl)piperidin-4-yl)amino)-4-(cyclopentyloxy)cyclobut-3-ene-1,2-dione]"
< 15 nM,–,"COc1c(N2CC3CCC2CN3Cc2ccc(-n3c(-c4cccnc4N)nc4ccc(-c5ccccc5)nc43)cc2)c(=O)c1=O (stereo not shown) [Example 63, 3-(5-(4-(2-(2-aminopyridin-3-yl)-5-phenyl-3H-imidazo[4,5-b]pyridin-3-yl)benzyl)-2,5-diazabicyclo[2.2.2]octan-2-yl)-4-methoxycyclobut-3-ene-1,2-dione]"
–,60 to 600 nM,"Nc1ncccc1-c1nc2ccc(-c3ccccc3)nc2n1-c1ccc(CN2CCC(Nc3c(OC4CCCC4)c(=S)c3=S)CC2)cc1 [Example 16, 3-((1-(4-(2-(2-Aminopyridin-3-yl)-5-phenyl-3H-imidazo[4,5-b]pyridin-3-yl)benzyl)piperidin-4-yl)amino)-4-(cyclopentyloxy)cyclobut-3-ene-1,2-dithione]"

# From patent US20260365646A1, “AKT1 MODULATORS” (Alterome Therapeutics, Inc., priority 2022, published 2026)
